Where two headings read alike, the source gives them in different places.
What was measured:
A2780 ovarian carcinoma = assay: Antitumor activity against A2780 ovarian carcinoma xenograft; format: in vivo, human (s.c. xenograft in CD1 nu/nu mice)
Procedure: Vehicle • 2. […] Oxaliplatin 7 mg/10 ml/kg and 4.7 mg/10 ml/kg, i.p. (q4dx2, days 3, 7). • 4. Combination groups: 7-t-butoxyiminomethylcamptothecin+oxaliplatin: 0.28+7, 0.28+4.7, 0.19+7, 0.19+4.7. • 5. […] Oxaliplatin 7 mg/10 ml/kg, i.p. (q7dx2, days 3, 10). • 7. Combination groups: 7-t-butoxyiminomethylcamptothecin+oxaliplatin 0.19+7.
7-8 mice/group are treated 3 days after tumor injection with the following drugs. • 1. Vehicle • 2. […] Carboplatin 50 mg/10 ml/kg, i.p. (q7dx2, days 3, 10). • 7. Combination groups: 7-t-butoxyiminomethylcamptothecin+carboplatin 0.19+50.
(§1) In all the combination groups, the drug were administered 1 h before 7-t butoxyiminomethylcamptothecin.

MCF-7 human breast ca. = assay: Antitumor activity against MCF-7 breast carcinoma xenograft; conditions: for BWL % (body weight loss): in vivo, po
Procedure: The pellets are placed in the inter scapular region one day before the tumor cells inoculation. 8 mice/group are treated 6 days after tumor injection with the following drugs: • 1. Vehicle • 2.

[1] = test system: A2780/DDP platinum-resistant ovarian carcinoma; assay: Antitumor activity against A2780/DDP xenograft; format: in vivo, human (xenograft in CD1 nu/nu mice)
Procedure: 8 mice/group are treated 3 days after tumor injection with the following drugs. • 1. Vehicle • 2.
as §1

[2] = test system: NCI-H460 non-small cell lung carcinoma; assay: Antitumor activity against NCI-H460 xenograft (docetaxel, carboplatin); format: in vivo, human (xenograft in CD1 nu/nu mice)
DU145 prostate carcinoma = assay: Antitumor activity against DU145 xenograft; conditions: for BWL % (body weight loss): in vivo, po
Procedure: 8 mice/group are treated 14 days after tumor injection with the following drugs: • 1. Vehicle • 2.
8 mice/group are also treated 14 days after tumor injection with the following drugs: • 1. […] Docetaxel 20 mg/10 mi/kg, i.p., (q7dx3, days 14, 21, 28). • 3. Combination groups: 7-t-butoxyiminomethylcamptothecin+docetaxel 0.17+20.

[3] = test system: MDA MB 435S human breast cancer; assay: Antitumor activity against MDA MB 435S xenograft; format: in vivo, human (xenograft in BALB/c nu/nu mice)
Procedure: Test system: BALB/c nu/nu mice for tumor models are used.
The cells are harvested by trypsinisation, washed twice in HBSS and counted using Trypan Blue to distinguish viable cells.
Doxorubicin (either on its own or in conjunction with Gimatecan) is administered 3 times per week intravenously, via the tail vein (i.v.). • 1. Vehicle • 2.
The paired t-test is used to determine differences in body weight changes from Day 0 to Day 13 for groups 14 and 15 and from Day 0 to Day 20 for all other groups (Table 4). All calculations are done using SigmaStat 3.0. The one way ANOVA procedure is used for statistical calculations of differences in the tumor volumes.

[4] = Maximum tolerated dose (MTD) in tumor-bearing mice; format: in vivo
NCI-H460 NSCLC [5] = conditions: in vivo, po
Procedure: (§2) Mice are treated with 3 intravenously doses of paclitaxel at days 3, 10, 17 after tumor injection. […] Treatments in NCI-H460 tumor model are performed in the following groups of 8 mice each: • 1. Vehicle • 2. 50 mg/15 ml/kg, i.v. of paclitaxel (3, 10, 17) • 3. […] 25 mg/15 ml/kg, i.v. of paclitaxel (3, 10, 17) • 5.

NCI-H460 NSCLC [6] = assay: Antitumor activity against NCI-H460 xenograft (paclitaxel); conditions: for reduction of the tumor volume: 5 days for 3 cycles
Procedure: as §2

[7] = A 0.28 mg/kg p.o. qdx5/w, 0.28 mg/kg
[8] = A 0.08 mg/kg p.o. qdx5/w, 3 cycles
[9] = docetaxel 20 mg/kg i.p. q3-4dx2
[10] = carboplatin 50 mg/kg i.p. q4dx2

## CC[C@@]1(O)C(=O)OCc2c1cc1n(c2=O)Cc2c-1nc1ccccc1c2/C=N/OC(C)(C)C [A]
A2780 ovarian carcinoma; A 0.19 mg/kg p.o. qdx5/w
  BWL % (body weight loss): 6%
  CR (complete response): 8/8
  LCK (log10 cell kill): 2.15
  TVI % (tumor volume inhibition): 100%
  Tox (dead/treated mice): 0/8
A2780 ovarian carcinoma; A 0.19 mg/kg p.o. qdx5/wx2w
  BWL % (body weight loss): 6%
  CR (complete response): 4/7
  LCK (log10 cell kill): 3.15
  TVI % (tumor volume inhibition): 100%
  Tox (dead/treated mice): 0/7
A2780 ovarian carcinoma; A 0.28 mg/kg p.o. qdx5/w
  BWL % (body weight loss): 13%
  CR (complete response): 8/8
  TVI % (tumor volume inhibition): 100%
  Tox (dead/treated mice): 0/8
A2780 ovarian carcinoma; [7]
  LCK (log10 cell kill): 2.44
MCF-7 human breast ca.; A 0.19 mg/kg p.o. qdx5/w
  CR (complete response): 1/8
  TVI % (tumor volume inhibition): 81%
  Tox (dead/treated mice): 2/8
MCF-7 human breast ca.; A 0.28 mg/kg p.o. qdx5/w
  TVI % (tumor volume inhibition): 70%
  Tox (dead/treated mice): 1/8
MCF-7 human breast ca.; [7]
  CR (complete response): 1/8
MCF-7 human breast ca.; 0.19 mg/kg
  BWL % (body weight loss): 10%
MCF-7 human breast ca.; 0.28 mg/kg
  BWL % (body weight loss): 9%
[1]; A 0.19 mg/kg p.o. qdx5/w
  BWL % (body weight loss): 1%
  LCK (log10 cell kill): 0.18
  TVI % (tumor volume inhibition): 35%
  Tox (dead/treated mice): 0/8
[1]; A 0.28 mg/kg p.o. qdx5/w
  BWL % (body weight loss): 7%
  LCK (log10 cell kill): 0.23
  TVI % (tumor volume inhibition): 46%
  Tox (dead/treated mice): 0/8
[2]; A 0.19 mg/kg p.o. qdx5/w
  BWL % (body weight loss): 8%
  CR (complete response): 1/8
  LCK (log10 cell kill): 1.14
  TVI % (tumor volume inhibition): 79%
  Tox (dead/treated mice): 0/8
[2]; A 0.19 mg/kg p.o. qdx5/wx2w
  BWL % (body weight loss): 7%
  CR (complete response): 0/7
  LCK (log10 cell kill): 2.3
  TVI % (tumor volume inhibition): 94%
  Tox (dead/treated mice): 0/7
[2]; A 0.28 mg/kg p.o. qdx5/w
  BWL % (body weight loss): 16%
  CR (complete response): 0/8
  LCK (log10 cell kill): 1.45
  TVI % (tumor volume inhibition): 94%
  Tox (dead/treated mice): 1/8
DU145 prostate carcinoma; A 0.19 mg/kg p.o. qdx5/w
  CR (complete response): 0/8
  LCK (log10 cell kill): 0.28
  TVI % (tumor volume inhibition): 25%
  Tox (dead/treated mice): 0/8
DU145 prostate carcinoma; A 0.25 mg/kg p.o. qdx5/w
  CR (complete response): 0/8
  LCK (log10 cell kill): 0.28
  TVI % (tumor volume inhibition): 53%
  Tox (dead/treated mice): 0/8
DU145 prostate carcinoma; 0.19 mg/kg
  BWL % (body weight loss): 4%
DU145 prostate carcinoma; 0.25 mg/kg
  BWL % (body weight loss): 8%
[3]; A 0.07 mg/kg p.o. qdx5/w
  BWL % (body weight loss): (+2.5) %
  T/C %: 93%
  Tox (dead/treated mice): 9/9
[3]; A 0.14 mg/kg p.o. qdx5/w
  BWL % (body weight loss): 1%
  T/C %: 46%
  Tox (dead/treated mice): 0/9
[3]; A 0.21 mg/kg p.o. qdx5/w
  BWL % (body weight loss): 1%
  T/C %: 5%
  Tox (dead/treated mice): 1/9
[4]; CD1 nu/nu, mouse, in vivo, po, p.o. qdx5
  MTD at 5 days: 0.28 mg/kg
[4]; female, CD1 nu/nu, mouse, in vivo, oral, qdx5/w, A2780/DDP model, read-out: approximate maximum tolerated dose
  MTD: ~0.28 mg/kg
[4]; male, mouse, in vivo, oral, qdx5/w, DU145 model, read-out: approximate maximum tolerated dose
  MTD: ~0.25 mg/kg
NCI-H460 NSCLC [5]; 0.08 mg/kg
  BWL % (body weight loss): 0%
NCI-H460 NSCLC [5]; 0.125 mg/kg
  BWL % (body weight loss): 0%
NCI-H460 NSCLC [5]; 0.25 mg/kg
  BWL % (body weight loss): 0%
NCI-H460 NSCLC [6]; [8]
  T/C % (TW in treated mice/TW in control mice × 100): 59.5%
  Tox (dead/treated mice): 0/8
NCI-H460 NSCLC [6]; A 0.125 mg/kg p.o. qdx5/w, 3 cycles
  T/C % (TW in treated mice/TW in control mice × 100): 9.9%
NCI-H460 NSCLC [6]; A 0.125 mg/kg p.o. qdx5/w, 3 cycles, 0.125 mg/kg
  Tox (dead/treated mice): 0/8
NCI-H460 NSCLC [6]; A 0.125 mg/kg
  reduction of the tumor volume: ~90%
NCI-H460 NSCLC [6]; A 0.25 mg/kg p.o. qdx5/w, 3 cycles
  T/C % (TW in treated mice/TW in control mice × 100): 1.5%
NCI-H460 NSCLC [6]; A 0.25 mg/kg p.o. qdx5/w, 3 cycles, 0.25 mg/kg
  Tox (dead/treated mice): 0/8
NCI-H460 NSCLC [6]; A 0.25 mg/kg
  reduction of the tumor volume: about 99%

## CC(=O)O[C@@]12CO[C@@H]1C[C@H](O)[C@@]1(C)C(=O)[C@H](O)C3=C(C)[C@@H](OC(=O)[C@H](O)[C@@H](NC(=O)OC(C)(C)C)c4ccccc4)C[C@@](O)([C@@H](OC(=O)c4ccccc4)[C@H]21)C3(C)C [B, docetaxel, reference compound]
MCF-7 human breast ca.; [9]
  CR (complete response): 1/8
  TVI % (tumor volume inhibition): 73%
[2]; docetaxel 20 mg/kg i.p. q4dx2
  TVI % (tumor volume inhibition): 63%
[4]; CD1 nu/nu, mouse, in vivo, ip, docetaxel i.p. q4dx2, read-out: MTD
  MTD: 20 mg/kg

## CC(=O)O[C@H]1C(=O)[C@@]2(C)[C@H]([C@H](OC(=O)c3ccccc3)[C@]3(O)C[C@H](OC(=O)[C@H](O)[C@@H](NC(=O)c4ccccc4)c4ccccc4)C(C)=C1C3(C)C)[C@]1(OC(C)=O)CO[C@@H]1C[C@@H]2O [B, paclitaxel, reference compound]
[4]; female, CD1 nu/nu, mouse, in vivo, iv, paclitaxel i.v. q7dx3, read-out: tolerated dose (MTD)
  MTD: 50 mg/kg
NCI-H460 NSCLC [6]; paclitaxel 25 mg/kg i.v. q7dx3
  T/C % (TW in treated mice/TW in control mice × 100): 55.2%
NCI-H460 NSCLC [6]; paclitaxel 33.3 mg/kg i.v. q7dx3
  T/C % (TW in treated mice/TW in control mice × 100): 36.8%
NCI-H460 NSCLC [6]; paclitaxel 50 mg/kg i.v. q7dx3
  T/C % (TW in treated mice/TW in control mice × 100): 38.6%

## carboplatin [reference compound]
[1]; [10]
  TVI % (tumor volume inhibition): 34%
[2]; [10]
  TVI % (tumor volume inhibition): 59%
[4]; carboplatin i.p. q4dx2
  MTD: 50 mg/kg

From patent US8975248B2, “Combinations of therapeutic agents for treating cancer” (Sigma-Tau Industrie Farmaceutiche Riunite S.p.A., priority 2004, dated 2015)
